From the NIST ThermoML archive (doi:10.1016/j.tca.2014.05.033)
Numbers after ± are expanded uncertainties.

Assays:
[1] = molar enthalpy of vaporization or sublimation; conditions: 298.15 K, DSC
[2] = Transpiration method

For `c1ccc(-c2ccccc2-c2ccccc2)cc1` [o-terphenyl], the molar enthalpy ([1]; Crystal) was 106 ± 3.1 kJ/mol, the “vapor or sublimation pressure” value ([2]; 343.5 K, Liquid) was 0.00166 ± 9e-05 kPa and the “vapor or sublimation pressure” value ([2]; 345.5 K, Liquid) was 0.00195 ± 0.0001 kPa. The “vapor or sublimation pressure” value ([2]; 346.4 K, Liquid) was 0.0021 ± 0.00011 kPa, the “vapor or sublimation pressure” value ([2]; 348.4 K, Liquid) was 0.0025 ± 0.00013 kPa and the “vapor or sublimation pressure” value ([2]; 349.5 K, Liquid) was 0.0027 ± 0.00014 kPa. For the same compound, the “vapor or sublimation pressure” value ([2]; 351.5 K, Liquid) was 0.00315 ± 0.00016 kPa, the “vapor or sublimation pressure” value ([2]; 352.5 K, Liquid) was 0.00339 ± 0.00018 kPa and the “vapor or sublimation pressure” value ([2]; 355.4 K, Liquid) was 0.00427 ± 0.00022 kPa. For the same compound, the “vapor or sublimation pressure” value ([2]; 358.4 K, Liquid) was 0.00528 ± 0.00028 kPa, the “vapor or sublimation pressure” value ([2]; 360.4 K, Liquid) was 0.0062 ± 0.00032 kPa and the “vapor or sublimation pressure” value ([2]; 361.4 K, Liquid) was 0.00658 ± 0.00034 kPa. The “vapor or sublimation pressure” value ([2]; 361.5 K, Liquid) was 0.00664 ± 0.00035 kPa, the “vapor or sublimation pressure” value ([2]; 363.2 K, Liquid) was 0.00752 ± 0.00039 kPa and the “vapor or sublimation pressure” value ([2]; 365.4 K, Liquid) was 0.00888 ± 0.00046 kPa. The “vapor or sublimation pressure” value ([2]; 366.4 K, Liquid) was 0.00943 ± 0.00049 kPa, the “vapor or sublimation pressure” value ([2]; 368.4 K, Liquid) was 0.01095 ± 0.00057 kPa and the “vapor or sublimation pressure” value ([2]; 369.4 K, Liquid) was 0.01187 ± 0.00062 kPa. For the same compound, the “vapor or sublimation pressure” value ([2]; 371.4 K, Liquid) was 0.01363 ± 0.0007 kPa, the “vapor or sublimation pressure” value ([2]; 373.3 K, Liquid) was 0.01527 ± 0.00079 kPa and the “vapor or sublimation pressure” value ([2]; 374.4 K, Liquid) was 0.01677 ± 0.00087 kPa. For the same compound, the “vapor or sublimation pressure” value ([2]; 376.3 K, Liquid) was 0.01869 ± 0.00097 kPa and the “vapor or sublimation pressure” value ([2]; 377.4 K, Liquid) was 0.02037 ± 0.0011 kPa.

With `c1ccc2c(c1)ccc1ccccc12` [phenanthrene] the molar enthalpy ([1]; Crystal 2) was 92.3 ± 3 kJ/mol, the “vapor or sublimation pressure” value ([2]; 306.2 K, Crystal 2) was 5e-05 ± 1e-05 kPa and the “vapor or sublimation pressure” value ([2]; 309.4 K, Crystal 2) was 7e-05 ± 1e-05 kPa. The “vapor or sublimation pressure” value ([2]; 313.2 K, Crystal 2) was 0.00012 ± 1e-05 kPa, the “vapor or sublimation pressure” value ([2]; 316.3 K, Crystal 2) was 0.00016 ± 1e-05 kPa and the “vapor or sublimation pressure” value ([2]; 319.3 K, Crystal 2) was 0.00021 ± 1e-05 kPa. The “vapor or sublimation pressure” value ([2]; 322.3 K, Crystal 2) was 0.00031 ± 2e-05 kPa, the “vapor or sublimation pressure” value ([2]; 325.2 K, Crystal 2) was 0.00043 ± 2e-05 kPa and the “vapor or sublimation pressure” value ([2]; 328.4 K, Crystal 2) was 0.00055 ± 3e-05 kPa. The “vapor or sublimation pressure” value ([2]; 329.2 K, Crystal 2) was 0.00063 ± 4e-05 kPa, the “vapor or sublimation pressure” value ([2]; 330.7 K, Crystal 2) was 0.00073 ± 4e-05 kPa and the “vapor or sublimation pressure” value ([2]; 334.2 K, Crystal 2) was 0.00101 ± 5e-05 kPa. For the same compound, the “vapor or sublimation pressure” value ([2]; 337.2 K, Crystal 2) was 0.00135 ± 7e-05 kPa, the “vapor or sublimation pressure” value ([2]; 340.3 K, Crystal 2) was 0.00178 ± 9e-05 kPa and the “vapor or sublimation pressure” value ([2]; 343.4 K, Crystal 2) was 0.00229 ± 0.00012 kPa. The “vapor or sublimation pressure” value ([2]; 346.3 K, Crystal 2) was 0.00306 ± 0.00016 kPa, the “vapor or sublimation pressure” value ([2]; 349.4 K, Crystal 1) was 0.00403 ± 0.00022 kPa and the “vapor or sublimation pressure” value ([2]; 352.4 K, Crystal 1) was 0.00545 ± 0.00029 kPa. For the same compound, the “vapor or sublimation pressure” value ([2]; 355.5 K, Crystal 1) was 0.00705 ± 0.00037 kPa, the “vapor or sublimation pressure” value ([2]; 356.8 K, Crystal 1) was 0.0076 ± 0.0004 kPa and the “vapor or sublimation pressure” value ([2]; 358.6 K, Crystal 1) was 0.00914 ± 0.00048 kPa. The “vapor or sublimation pressure” value ([2]; 359.2 K, Crystal 1) was 0.00907 ± 0.00046 kPa, the “vapor or sublimation pressure” value ([2]; 362.3 K, Crystal 1) was 0.01171 ± 0.00062 kPa and the “vapor or sublimation pressure” value ([2]; 365.3 K, Crystal 1) was 0.01534 ± 0.00082 kPa. The “vapor or sublimation pressure” value ([2]; 368.3 K, Crystal 1) was 0.01988 ± 0.001 kPa and the “vapor or sublimation pressure” value ([2]; 370.4 K, Crystal 1) was 0.02298 ± 0.0012 kPa.
